Results taken from ChEMBL document CHEMBL1201862, “PubChem BioAssay data set” (2004).
Activity calls are given as the source filed them. For most assays here, no stated cut-off is given here; in the data, actives have a measured IC50 and inactives only a lower limit.

Columns and labels:
[1] = Luminescence Cell-Based Dose Confirmation HTS to Identify Activators of 5'UTR Stem-Loop Driven Alpha-Synuclein mRNA Translation in H4 Neuroglioblastoma Cells. [Related pubchem assays: 1829 (Project Summary), 1814 (Primary HTS)]; type: functional
H4 = experiment: Luminescence Cell-Based Dose Response HTS to Identify Activators of 5'UTR Stem-Loop Driven Prion Protein mRNA Translation in H4 Neuroglioblastoma Cells. [Related pubchem assays: 1829 (Project Summary), 1814 (Primary HTS)]; type: functional; conditions: Homo sapiens
[2] = Luminescence Cell-Based Dose Response HTS to Identify Activators of Luciferase Translation or Activity in H4 […] Cells. [Related pubchem assays: 1829 (Project Summary), 1814 (Primary HTS)]; type: functional
[3] = target: T1, Tyrosine-protein phosphatase non-receptor type 7 (Homo sapiens, UniProt P35236); type: functional
T1 sequence (P35236 whole entry): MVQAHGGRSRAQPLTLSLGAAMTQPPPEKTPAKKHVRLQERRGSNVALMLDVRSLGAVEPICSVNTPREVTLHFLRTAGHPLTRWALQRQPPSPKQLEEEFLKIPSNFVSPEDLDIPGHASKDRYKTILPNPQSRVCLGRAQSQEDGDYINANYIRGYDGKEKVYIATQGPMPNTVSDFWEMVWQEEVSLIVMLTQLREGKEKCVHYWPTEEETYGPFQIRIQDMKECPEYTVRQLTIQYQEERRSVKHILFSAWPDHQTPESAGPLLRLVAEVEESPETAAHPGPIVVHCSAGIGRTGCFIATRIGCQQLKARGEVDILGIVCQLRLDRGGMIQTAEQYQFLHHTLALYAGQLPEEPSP

[4] = target: T2, Tyrosine-protein phosphatase non-receptor type 22 (Homo sapiens, UniProt Q9Y2R2); type: functional
T2 sequence (Q9Y2R2 whole entry): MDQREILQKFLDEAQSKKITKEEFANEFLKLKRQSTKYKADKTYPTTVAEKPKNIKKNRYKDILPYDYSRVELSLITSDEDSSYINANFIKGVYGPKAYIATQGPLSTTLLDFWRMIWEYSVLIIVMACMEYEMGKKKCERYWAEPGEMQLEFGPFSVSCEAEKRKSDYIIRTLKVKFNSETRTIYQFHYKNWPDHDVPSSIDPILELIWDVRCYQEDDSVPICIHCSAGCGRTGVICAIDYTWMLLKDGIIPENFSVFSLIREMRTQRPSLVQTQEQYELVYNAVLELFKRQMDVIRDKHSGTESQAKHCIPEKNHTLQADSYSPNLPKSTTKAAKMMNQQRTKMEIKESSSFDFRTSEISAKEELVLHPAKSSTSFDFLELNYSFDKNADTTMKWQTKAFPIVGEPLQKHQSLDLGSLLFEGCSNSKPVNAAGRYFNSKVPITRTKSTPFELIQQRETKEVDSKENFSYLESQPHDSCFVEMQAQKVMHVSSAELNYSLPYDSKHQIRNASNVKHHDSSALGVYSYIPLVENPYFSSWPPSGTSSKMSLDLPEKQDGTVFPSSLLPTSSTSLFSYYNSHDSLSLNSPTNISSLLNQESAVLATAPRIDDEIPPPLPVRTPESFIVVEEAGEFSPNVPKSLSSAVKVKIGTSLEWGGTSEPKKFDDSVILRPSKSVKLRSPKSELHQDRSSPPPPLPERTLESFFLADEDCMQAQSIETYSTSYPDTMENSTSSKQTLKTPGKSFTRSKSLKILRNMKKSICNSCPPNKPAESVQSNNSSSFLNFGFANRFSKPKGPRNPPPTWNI

[5] = target: T2, Tyrosine-protein phosphatase non-receptor type 22; type: functional; remark: listed apart in the source
[6] = target: T3, Nucleotide-binding oligomerization domain-containing protein 2 (Homo sapiens, UniProt Q9HC29); experiment: PubChem AID 2334; type: functional
T3 sequence (Q9HC29 whole entry, the tested form may be a part): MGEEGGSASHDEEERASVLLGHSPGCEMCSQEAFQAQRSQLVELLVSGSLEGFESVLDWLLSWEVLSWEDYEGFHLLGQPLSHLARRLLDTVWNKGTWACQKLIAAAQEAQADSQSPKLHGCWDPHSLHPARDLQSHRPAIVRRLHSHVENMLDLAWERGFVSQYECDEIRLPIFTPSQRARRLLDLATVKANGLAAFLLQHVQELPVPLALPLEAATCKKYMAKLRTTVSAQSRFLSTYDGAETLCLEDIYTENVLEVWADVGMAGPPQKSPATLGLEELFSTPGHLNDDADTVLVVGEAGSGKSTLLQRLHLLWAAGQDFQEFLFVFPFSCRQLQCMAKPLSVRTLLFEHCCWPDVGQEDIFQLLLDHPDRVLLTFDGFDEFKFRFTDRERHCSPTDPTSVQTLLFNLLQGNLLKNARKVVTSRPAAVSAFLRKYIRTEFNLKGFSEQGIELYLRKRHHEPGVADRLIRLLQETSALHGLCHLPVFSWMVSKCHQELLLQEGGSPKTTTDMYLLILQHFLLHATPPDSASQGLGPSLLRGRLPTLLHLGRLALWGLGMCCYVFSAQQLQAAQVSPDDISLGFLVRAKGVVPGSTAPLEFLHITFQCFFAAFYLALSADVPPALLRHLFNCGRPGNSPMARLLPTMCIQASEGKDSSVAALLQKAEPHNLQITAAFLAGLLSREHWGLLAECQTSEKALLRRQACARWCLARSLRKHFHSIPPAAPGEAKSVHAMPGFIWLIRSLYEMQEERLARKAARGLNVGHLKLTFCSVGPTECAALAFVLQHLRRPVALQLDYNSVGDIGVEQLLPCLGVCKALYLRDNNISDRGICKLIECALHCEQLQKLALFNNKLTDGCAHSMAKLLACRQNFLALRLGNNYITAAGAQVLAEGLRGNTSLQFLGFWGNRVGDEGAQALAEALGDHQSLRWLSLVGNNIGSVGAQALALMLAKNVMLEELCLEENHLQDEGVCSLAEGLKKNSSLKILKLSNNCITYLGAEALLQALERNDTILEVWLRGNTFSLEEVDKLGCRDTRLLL

HEK293 [7] = experiment: SAR analysis of compounds that are cytotoxic to HEK293 - Set 2. [Related pubchem assays (depositor defined):AID1575, AID1578, AID1849, AID2001, AID2333, AID2334, AID2335, AID2337, AID2800]; type: functional, cell-based; conditions: Homo sapiens
[8] = target: T3, Nucleotide-binding oligomerization domain-containing protein 2; experiment: NOD2 signaling inhibitors, analog potency, SAR follow-up, cell-based, set 3 (AID 2799); type: functional
HEK293 [9] = experiment: cells; type: functional, cell-based; conditions: Homo sapiens
HEK293 [10] = experiment: SAR analysis of compounds that are cytotoxic to HEK293 - Set 3. [Related pubchem assays (depositor defined):AID1575, AID1578, AID1848, AID1849, AID2001, AID2333, AID2334, AID2335, AID2337, AID2469]; type: functional, cell-based; conditions: Homo sapiens
Tumor necrosis factor [11] = target: T4, Tumor necrosis factor (Homo sapiens, UniProt P01375); experiment: TNFa-triggered NF-kB activation inhibitors, SAR follow-up, cell-based, revised (AID 2337); type: functional
T4 sequence (P01375 whole entry): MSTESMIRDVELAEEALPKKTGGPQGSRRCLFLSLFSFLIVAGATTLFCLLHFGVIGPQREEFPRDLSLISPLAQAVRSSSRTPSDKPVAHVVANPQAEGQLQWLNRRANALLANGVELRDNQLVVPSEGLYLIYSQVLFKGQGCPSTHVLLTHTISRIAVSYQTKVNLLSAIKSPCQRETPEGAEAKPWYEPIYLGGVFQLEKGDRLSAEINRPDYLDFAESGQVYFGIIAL

Tumor necrosis factor [12] = target: T4, Tumor necrosis factor; experiment: TNFa-triggered NF-kB activation inhibitors, SAR follow-up, cell-based, set 3 (AID 2801); type: functional
HEK293 [13] = experiment: NOD2 signaling inhibitors in MDP-stimulated cells, cell-based, uHTS, luminescence (AID 2001); type: functional; conditions: Homo sapiens
[14] = target: T3, Nucleotide-binding oligomerization domain-containing protein 2; experiment: NOD2 inhibitors, SAR follow-up, set 2 (AID 2475); type: functional
HEK293 [15] = experiment: cells; type: functional, cell-based; conditions: Homo sapiens; remark: listed apart in the source
HEK293 [16] = experiment: cells; conditions: Homo sapiens
[17] = target: T1, Tyrosine-protein phosphatase non-receptor type 7; experiment: HePTP (PTPN7) phosphatase inhibitor potency, SAR follow-up, biochemical, set 2 (AID 449736); type: functional

O=C1C2C(C(=O)N1/N=C/c1cccc([N+](=O)[O-])c1)C1C=CC2C12CC2 (stereo not drawn)
active: EC50 [1] 15.4 µM | EC50 (H4) 87.7 µM | EC50 [2] 7.44 µM
inactive: IC50 [3] > 79.4 µM | IC50 [4] > 79.4 µM | IC50 [5] > 79.4 µM

Cc1ccc(S(=O)(=O)n2c(N)nc3ccccc32)cc1
inactive: IC50 [6] > 20 µM | IC50 (HEK293 [7]) > 20 µM | IC50 [8] > 20 µM | IC50 (HEK293 [9]) > 20 µM | IC50 (HEK293 [10]) > 20 µM | IC50 (Tumor necrosis factor [11]) > 20 µM | IC50 (Tumor necrosis factor [12]) > 20 µM | IC50 (HEK293 [13]) > 20 µM | IC50 [14] > 20 µM | IC50 (HEK293 [15]) > 20 µM | IC50 (HEK293 [16]) > 20 µM

Cc1ccc(NC(=O)Nc2ccc(S(N)(=O)=O)cc2)cc1
active: IC50 [17] 47.6 µM
